From patent publication US11325899B2, “Benzofurane and benzothiophene derivatives as PGE2 receptor modulators” (IDORSIA PHARMACEUTICALS LTD, priority 2017, dated 2022)

Tests used:
Type in all cases: cell-based
PTGER2 (EP2) = molecular target: T1, PTGER2 (EP2) (Homo sapiens, UniProt P43116); experiment: hEP2 b-arrestin assay (PathHunter HEK 293 PTGER2 b-arrestin cells); settings: antagonistic activity, beta-arrestin assay; read-out: hEP2 b-arr IC50
T1 construct: host or cells: HEK 293 (PathHunter PTGER2 b-arrestin cell line)
How it was run: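 PathHunter HEK293 cells with ProLink-tagged EP2 and EA-β-arrestin 2 preincubated 15 min at 37 °C with compound (10 μM-2 nM or 1 μM-0.2 nM), then stimulated 120 min with 5 μM PGE2 (EC80). β-gal complementation read by chemiluminescence; IC50 from duplicate dose-response versus DMSO.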

PTGER4 (EP4) = molecular target: T2, PTGER4 (EP4) (Homo sapiens, UniProt P35408); experiment: hEP4 b-arrestin assay (PathHunter HEK 293 PTGER4 b-arrestin cells); settings: antagonistic activity, beta-arrestin assay; read-out: hEP4 b-arr IC50
T2 construct: host or cells: HEK 293 (PathHunter PTGER4 b-arrestin cell line)
How it was run: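 PathHunter HEK 293 cells expressing ProLink-tagged human EP4 and EA-β-arrestin 2, seeded 24 h before. Compounds (10 μM–2 nM or 1 μM–0.2 nM) preincubated 15 min at 37 °C, then 20 nM PGE2 (EC80) for 120 min at 37 °C. β-gal complementation luminescence read; IC50 from duplicate dose-response curves versus DMSO control.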

EP2 receptor = molecular target: T3, EP2 receptor (Homo sapiens, UniProt P43116); experiment: hEP2 cAMP assay (SF295 glioblastoma cells, HTRF cAMP, PGE2 stimulation); settings: antagonistic activity
T3 construct: SF295 glioblastoma cells express high endogenous EP2 and no EP4; host or cells: SF295 glioblastoma cells
Method: The antagonistic activities of the compounds of formula (I) on the EP2 and EP4 receptors are also determined in accordance with the following experimental method.
Human tumor cell lines expressing endogenously either EP4 or EP2 are used and cAMP accumulation in cells upon PGE2 stimulation is monitored. SF295 glioblastoma cells express high endogenous EP2 and no EP4, whereas BT549 breast cancer cells, express high endogenous EP4 levels and very low EP2 levels.
As a detection method for cAMP the HTRF (homogeneous time resolved fluorescence) Cisbio kit (HTRF cAMP dynamic 2 kit 20′000 tests Cisbio Cat. #62AM4PEC) was used, which is based on a competitive immunoassay using a Cryptate-labeled anti-cAMP antibody and d2-labeled cAMP. Native cAMP produced by cells or unlabeled cAMP (for the standard curve) compete with exogenously added d2-labeled cAMP (acceptor) for binding to monoclonal anti-cAMP-Eu3+ Cryptate (donor). A FRET signal (Fluorescence Resonance Energy Transfer) is obtained only if the labeled anti-cAMP antibody binds the d2 labelled cAMP, thus the specific signal (i.e. energy transfer) is inversely proportional to the concentration of cAMP in the standard or sample.
The SF295 cells (NCI/No. 0503170) are detached from culture dishes with a cell dissociation buffer (Invitrogen, 13151-014), and collected in growing medium (GM: RPM1640 (Invitrogen 21875)/10% FCS, 1% Penicilin/streptomycin). Cells are counted washed and resuspended in assay buffer (AB; HBSS, 20 mM HEPES, 0.2% BSA; 2 mM IBMX). 4′000 cells in 5 μl of AB are seeded per well of a small volume 384 well plate (black with flat bottom, Greiner 784076).
Stock solutions of test compounds are made at a concentration of 10 mM in DMSO, and serially diluted in DMSO to concentrations required for inhibition dose response curves (tested concentration range 30 μM-0.4 nM; 30 μM-0.015 nM or 1 μM-0.01 nM).
PGE2 (Cayman 14010, stock solution: 75 μM in DMSO) is used as agonist at 75 nM final concentration, corresponding to EC80.
Two point five microliters of diluted compounds are transferred into the assay plate. Plate is pre-incubated 45 minutes at room temperature. Subsequently, 2.5 microliters of PGE2 (final conc. 75 nM) are transferred into the assay plate. Plate is incubated 30 minutes at room temperature. Five μl of each donor (anti-cAMP cryptate) and acceptor (cAMP-d2) are added and the plate is incubated another hour at room temperature in the dark and then read using a BMG LABTECH PHERAstar reader (Excitation: 337 nm, Emission: 620 and 665 nm).
The obtained Delta F (fluorescence) values (665 nm/620 nM) are converted into % cAMP values using the measurements of the cAMP calibrator provided in the kit. For each compound concentration the percentage of cAMP compared to DMSO control value as average±STDEV (each concentration is measured in duplicate) is calculated.
IC50 values and curves are generated with XLfit software (IDBS) using Dose-Response One Site model 203. When compounds were measured multiple times, mean values are given.

T2 sequence (P35408 whole entry): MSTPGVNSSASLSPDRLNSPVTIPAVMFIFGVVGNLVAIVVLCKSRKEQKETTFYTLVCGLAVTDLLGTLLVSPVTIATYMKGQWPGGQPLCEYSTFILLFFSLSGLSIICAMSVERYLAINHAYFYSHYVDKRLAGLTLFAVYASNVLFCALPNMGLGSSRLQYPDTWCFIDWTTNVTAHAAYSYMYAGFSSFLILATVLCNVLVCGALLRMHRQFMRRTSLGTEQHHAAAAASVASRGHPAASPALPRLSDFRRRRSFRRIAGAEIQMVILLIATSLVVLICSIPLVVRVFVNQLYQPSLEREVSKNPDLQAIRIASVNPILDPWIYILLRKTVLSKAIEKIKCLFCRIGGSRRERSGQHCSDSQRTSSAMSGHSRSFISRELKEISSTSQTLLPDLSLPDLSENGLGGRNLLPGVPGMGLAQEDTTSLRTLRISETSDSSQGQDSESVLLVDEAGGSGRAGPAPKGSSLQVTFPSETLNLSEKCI
T3 sequence (P43116 whole entry): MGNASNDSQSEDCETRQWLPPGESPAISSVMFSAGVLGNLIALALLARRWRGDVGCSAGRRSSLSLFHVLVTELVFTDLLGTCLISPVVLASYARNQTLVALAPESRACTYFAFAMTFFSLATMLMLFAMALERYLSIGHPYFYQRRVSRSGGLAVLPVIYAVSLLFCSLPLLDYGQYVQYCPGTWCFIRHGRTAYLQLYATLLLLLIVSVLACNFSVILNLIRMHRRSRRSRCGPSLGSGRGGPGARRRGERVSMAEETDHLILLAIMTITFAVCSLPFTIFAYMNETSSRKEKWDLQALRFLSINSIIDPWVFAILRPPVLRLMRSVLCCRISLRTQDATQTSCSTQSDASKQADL
T1 sequence (P43116 whole entry): as above

| SMILES | IC50 (PTGER2 (EP2)) [nM] | IC50 (PTGER4 (EP4)) [nM] | IC50 (EP2 receptor) [nM] |
| --- | --- | --- | --- |
| Cc1sc2c(C)cc(F)cc2c1CCNc1cc(-c2ccc(C(=O)O)c(OC3CCCC3)c2)ncn1 [Example 152, 2-Cyclopentyloxy-4-{6-[2-(5-fluoro-2,7-dimethyl-benzo[b]thiophen-3-yl)-ethylamino]-pyrimidin-4-yl}-benzoic acid] | 27 | 337 | 84 |
| CCc1nc(-c2cc(NCCc3c(C)sc4c(C)cc(F)cc34)ncn2)sc1C(=O)O [Example 161, 4-Ethyl-2-{6-[2-(5-fluoro-2,7-dimethyl-benzo[b]thiophen-3-yl)-ethylamino]-pyrimidin-4-yl}-thiazole-5-carboxylic acid] | 61 | 256 | 27 |
| CCOc1cc(-c2cc(NCCc3c(C)sc4c(C)cc(F)cc34)ncn2)sc1CCC(=O)O [Example 97, 3-(3-Ethoxy-5-{6-[2-(5-fluoro-2,7-dimethyl-benzo[b]thiophen-3-yl)-ethylamino]-pyrimidin-4-yl}-thiophen-2-yl)-propionic acid] | 49 | 84 | 120 |
| CCOc1cc(-c2cc(NCCc3c(C)sc4c(C)cc(F)cc34)ncn2)ccc1-c1noc(=O)[nH]1 [Example 155, 3-(2-Ethoxy-4-{6-[2-(5-fluoro-2,7-dimethyl-benzo[b]thiophen-3-yl)-ethylamino]-pyrimidin-4-yl}-phenyl)-[1,2,4]oxadiazol-5(4H)-one [tautomeric form: 3-(2-ethoxy-4-(6-((2-(5-fluoro-2,7-dimethylbenzo[b]thiophen-3-yl)ethyl)amino)pyrimidin-4-yl)phenyl)-[1,2,4]oxadiazol-5-ol]] | 18 | 47 | 87 |
| CCc1oc2c(C)cc(F)cc2c1CCNc1cc(-c2cc(C)c(C(=O)O)s2)ncn1 [Example 7, 5-{6-[2-(2-Ethyl-5-fluoro-7-methyl-benzofuran-3-yl)-ethylamino]-pyrimidin-4-yl}-3-methyl-thiophene-2-carboxylic acid] | 283 | 577 | 198 |
| COc1ccc(Cl)c2c(CCNc3cc(-c4ccc(C(=O)O)c(OC(F)F)c4)ncn3)c(C)sc12 [Example 116, 4-{6-[2-(4-Chloro-7-methoxy-2-methyl-benzo[b]thiophen-3-yl)-ethylamino]-pyrimidin-4-yl}-2-difluoromethoxy-benzoic acid] | 30 | 297 | 35 |
| CCCc1cc(-c2cc(NCCc3c(C#N)sc4c(C)cc(F)cc34)ncn2)ccc1CC(=O)O [Example 170, (4-{6-[2-(2-Cyano-5-fluoro-7-methyl-benzo[b]thiophen-3-yl)-ethylamino]-pyrimidin-4-yl}-2-propyl-phenyl)-acetic acid] | 19 | 19 | 116 |
| Cc1cc(F)cc2c(CCNc3cc(-c4ccc(CC(=O)O)c(OC(C)C)c4)ncn3)c(C#N)sc12 [Example 171, (4-{6-[2-(2-Cyano-5-fluoro-7-methyl-benzo[b]thiophen-3-yl)-ethylamino]-pyrimidin-4-yl}-2-isopropoxy-phenyl)-acetic acid] | 59 | 57 | 275 |
| Cc1oc2ccccc2c1CCNc1cc(-c2ccc(C(=O)O)c(SC3CCC3)c2)ncn1 [Example 129, 2-Cyclobutylsulfanyl-4-{6-[2-(2-methyl-benzofuran-3-yl)-ethylamino]-pyrimidin-4-yl}-benzoic acid] | 6 | 1410 | 15 |
| CCOc1cc(-c2cc(NCCc3c(C#N)sc4c(OC)cccc34)ncn2)ccc1CC(=O)O [Example 164, (4-{6-[2-(2-Cyano-7-methoxy-benzo[b]thiophen-3-yl)-ethylamino]-pyrimidin-4-yl}-2-ethoxy-phenyl)-acetic acid] | 504 | 50 | 348 |
| Cc1sc2c(C)cccc2c1CCNc1cc(-c2ccc(C(=O)O)cc2)ncn1 [Example 8, 4-{6-[2-(2,7-Dimethyl-benzo[b]thiophen-3-yl)-ethylamino]-pyrimidin-4-yl}-benzoic acid] | 16 | 1170 | 8 |
| COc1ccc(F)c2c(CCNc3cc(-c4ccc(C(=O)O)c(OC5CCC5)c4)ncn3)c(C)oc12 [Example 139, 2-Cyclobutoxy-4-{6-[2-(4-fluoro-7-methoxy-2-methyl-benzofuran-3-yl)-ethylamino]-pyrimidin-4-yl}-benzoic acid] | 51 | 209 | 245 |

More lines, now with the values ahead:

| IC50 (PTGER2 (EP2)) [nM] | IC50 (PTGER4 (EP4)) [nM] | IC50 (EP2 receptor) [nM] | SMILES |
| --- | --- | --- | --- |
| 12 | 299 | 20 | CCCOc1cc(-c2cc(NCCc3c(C)sc4c(C)cc(F)cc34)ncn2)ccc1C(=O)O [Example 100, 4-{6-[2-(5-Fluoro-2,7-dimethyl-benzo[b]thiophen-3-yl)-ethylamino]-pyrimidin-4-yl}-2-propoxy-benzoic acid] |
| 25 | 403 | 160 | CCOc1cc(-c2cc(NCCc3c(C)sc4c(C)cc(F)cc34)ncn2)ccc1CC(=O)O [Example 110, (2-Ethoxy-4-{6-[2-(5-fluoro-2,7-dimethyl-benzo[b]thiophen-3-yl)-ethylamino]-pyrimidin-4-yl}-phenyl)-acetic acid] |
| 16 | 29 | 112 | CCOc1cc(-c2cc(NCCc3c(C)sc4c(C)ccc(F)c34)ncn2)ccc1OCC(=O)O [Example 118, (2-Ethoxy-4-{6-[2-(4-fluoro-2,7-dimethyl-benzo[b]thiophen-3-yl)-ethylamino]-pyrimidin-4-yl}-phenoxy)-acetic acid] |
| 79 | 521 | 111 | CCOc1cc(-c2cc(NCCc3c(C)sc4c(C)ccc(F)c34)ncn2)cc(C)c1C(=O)O [Example 103, 2-Ethoxy-4-{6-[2-(4-fluoro-2,7-dimethyl-benzo[b]thiophen-3-yl)-ethylamino]-pyrimidin-4-yl}-6-methyl-benzoic acid] |
| 104 | 423 | 233 | CCOc1cc(-c2cc(NCCc3c(C)sc4c(C)cccc34)ncn2)ccc1C(C)C(=O)O (racemic) [Example 126, rac-2-(4-{6-[2-(2,7-Dimethyl-benzo[b]thiophen-3-yl)-ethylamino]-pyrimidin-4-yl}-2-ethoxy-phenyl)-propionic acid] |
| 20 | 23 | 101 | CCOc1cc(-c2cc(NCCc3c(C)sc4c(OC)ccc(F)c34)ncn2)ccc1OCC(=O)O [Example 117, (2-Ethoxy-4-{6-[2-(4-fluoro-7-methoxy-2-methyl-benzo[b]thiophen-3-yl)-ethylamino]-pyrimidin-4-yl}-phenoxy)-acetic acid] |
| 5 | 238 | 30 | CCCOc1cc(-c2cc(NCCc3c(C)sc4c(C)c(F)ccc34)ncn2)ccc1C(=O)O [Example 99, 4-{6-[2-(6-Fluoro-2,7-dimethyl-benzo[b]thiophen-3-yl)-ethylamino]-pyrimidin-4-yl}-2-propoxy-benzoic acid] |
| 29 | 290 | 59 | CCOc1cc(-c2cc(NCCc3c(C)oc4c(Cl)cccc34)ncn2)ccc1OCC(=O)O [Example 120, (4-{6-[2-(7-Chloro-2-methyl-benzofuran-3-yl)-ethylamino]-pyrimidin-4-yl}-2-ethoxy-phenoxy)-acetic acid] |
